pIC50: −log10 of the molar value.
target: T1, neutrophil elastase (Homo sapiens, UniProt P08246); test: Human Neutrophil Elastase Assay; assay type: biochemical; parameters: purchased Calbiochem 324681; conditions: substrate MeOSuc-Ala-Ala-Pro-Val-AMC, pH 7.5, room temperature
T1 sequence (P08246 30-247 limits assumed): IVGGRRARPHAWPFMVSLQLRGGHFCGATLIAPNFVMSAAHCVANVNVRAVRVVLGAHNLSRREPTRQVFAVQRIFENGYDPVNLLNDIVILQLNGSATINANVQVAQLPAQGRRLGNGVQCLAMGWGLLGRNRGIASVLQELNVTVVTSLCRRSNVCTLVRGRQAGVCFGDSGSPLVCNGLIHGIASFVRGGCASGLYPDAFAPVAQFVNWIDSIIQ
Experimental: Human Neutrophil Elastase Assay
Materials: Human neutrophil elastase was purchased from Calbiochem (Cat.No.: 324681) and the elastase substrate MeOSuc-Ala-Ala-Pro-Val-AMC from Bachem (Cat.No.: I-1270). All other materials were of the highest grade commercially available.
The following buffers were used: Compound buffer: 100 mM Tris, 500 mM NaCl, adjusted to pH 7.5; Assay buffer: 100 mM Tris, 500 mM NaCl, adjusted to pH 7.5, containing 0.01% BSA.
Assay conditions: Test compounds were prediluted in DMSO and subsequently in compound buffer (5% DMSO final). 5 μL of these compound dilutions were mixed with 10 μl Neutrophil elastase (9 ng/ml in assay buffer) in a black 384 well OptiPlate (Perkin Elmer, Cat No.: 6007270) and incubated for 15 min at room temperature. Subsequently 10 μL substrate solution in assay buffer were added (250 nM final concentration) and the plates were incubated for 60 min at room temperature. After inactivation of the enzyme, fluorescence intensities were measured at 380 nm excitation and 460 nm emission wavelengths.
Each plate contains wells with a high value control (DMSO+enzyme+substrate) and wells with a low value control (DMSO+inactivated enzyme+substrate). IC50 values were estimated using a sigmoidal concentration response curve with variable slope. Means of low values were taken as 0%, means of high values as 100%.

Row | pIC50 | Compound
1 | 8.59 | N#Cc1ccc(C2C3=C(CCCC3=O)N(c3cccc(C(F)(F)F)c3)C(=O)N2CC(=O)N2CCn3cncc3C2)cc1 (stereo not shown) [Example 36.49]
2 | 8.68 | N#Cc1ccc(C2C3=C(CCCC3=O)N(c3cccc(C(F)(F)F)c3)C(=O)N2CC(=O)N2CC[S+]([O-])CC2)cc1 (stereo not shown) [Example 36.45]
3 | 8.26 | N#Cc1ccc(C2C3=C(CCCC3=O)N(c3cccc(C(F)(F)F)c3)C(=O)N2CC(=O)N2CC3(CCC3)C2)cc1 (stereo not shown) [Example 36.17]
4 | 8.18 | CC(C(=O)NCCO)N1C(=O)N(c2cccc(C(F)(F)F)c2)C2=C(C(=O)CCC2)C1c1ccc(C#N)cc1 (stereo not shown) [Example 61, 2-(4-(4-Cyanophenyl)-2,5-dioxo-1-(3-(trifluoromethyl)phenyl)-1,2,5,6,7,8-hexahydroquinazolin-3(4H)-yl)-N-(2-hydroxyethyl)propanamide]
5 | 8.77 | Cn1ncc2c1CN(C(=O)CN1C(=O)N(c3cccc(C(F)(F)F)c3)C3=C(C(=O)CCC3)C1c1ccc(C#N)cc1)C2 (stereo not shown) [Example 35, 4-(3-(2-(1-Methylpyrrolo[3,4-c]pyrazol-5(1H,4H,6H)-yl)-2-oxoethyl)-2,5-dioxo-1-(3-(trifluoromethyl)phenyl)-1,2,3,4,5,6,7,8-octahydroquinazolin-4-yl)benzonitrile]
6 | 8.68 | N#Cc1ccc(C2C3=C(CCCC3=O)N(c3cccc(C(F)(F)F)c3)C(=O)N2CC(=O)N2CCC(O)C2)cc1 (stereo not shown) [Example 36.8]
7 | 7.56 | COC(=O)c1cc(S(=O)(=O)N2C(=O)N(c3cccc(C(F)(F)F)c3)C3=C(C(=O)CCC3)C2c2ccc(C#N)cc2)oc1C (stereo not shown) [Example 44.13]
8 | 7.14 | CS(=O)(=O)c1cc(C#N)ccc1C1NC(=O)N(c2ccnc(C(F)(F)F)c2)C2=C1C(=O)CCC2 (stereo not shown) [Example 57, 4-(2,5-Dioxo-1-(2-(trifluoromethyl)pyridin-4-yl)-1,2,3,4,5,6,7,8-octahydroquinazolin-4-yl)-3-(methylsulfonyl)benzonitrile]
9 | 8.23 | N#Cc1ccc(C2C3=C(CCCC3=O)N(c3cccc(C(F)(F)F)c3)C(=O)N2CC(=O)NCCn2ccnc2)cc1 (stereo not shown) [Example 36.30]
10 | 8.02 | C[S+]([O-])CCNC(=O)CN1C(=O)N(c2cccc(C(F)(F)F)c2)C2=C(C(=O)CCC2)C1c1ccc(C#N)cc1 (stereo not shown) [Example 36.29]
11 | 8.68 | N#Cc1ccc(C2C3=C(CCCC3=O)N(c3cccc(C(F)(F)F)c3)C(=O)N2C(=O)NCC2(O)CCC2)cc1 (stereo not shown) [Example 70.13]
12 | 8.18 | Cn1nccc1CN1C(=O)N(c2cccc(C(F)(F)F)c2)C2=C(C(=O)CCC2)C1c1ccc(C#N)cc1 (stereo not shown) [Example 24.1]
13 | 8.26 | CC(C)(O)CNC(=O)N1C(=O)N(c2ccnc(C(F)(F)F)c2)C2=C(C(=O)CCC2)C1c1ccc(C#N)cc1 (stereo not shown) [Example 76.4]
14 | 8.54 | CN(Cc1cnn(C)c1)C(=O)CN1C(=O)N(c2cccc(C(F)(F)F)c2)C2=C(C(=O)CCC2)C1c1ccc(C#N)cc1 (stereo not shown) [Example 36.54]
15 | 7.80 | Cn1ccc(S(=O)(=O)N2C(=O)N(c3cccc(C(F)(F)F)c3)C3=C(C(=O)CCC3)C2c2ccc(C#N)cc2)n1 (stereo not shown) [Example 44.7]
16 | 7.88 | N#Cc1ccc(C2C3=C(CCCC3=O)N(c3cccc(C(F)(F)F)c3)C(=O)N2CC(=O)NC2CC2)cc1 (stereo not shown) [Example 36.2]
17 | 8.92 | CNC(=O)N1C(=O)N(c2cccc(C(F)(F)F)c2)C2=C(C(=O)CCC2)C1c1ccc(C#N)cc1 (stereo not shown) [Example 39.1]
18 | 8.06 | COCCN1C(=O)N(c2cccc(C(F)(F)F)c2)C2=C(C(=O)CCC2)C1c1ccc(C#N)cc1 (stereo not shown) [Example 22, 4-(1-(3-(Trifluoromethyl)phenyl)-3-(2-methoxyethyl)-2,5-dioxo-1,2,3,4,5,6,7,8-octahydroquinazolin-4-yl)benzonitrile]
19 | 8.17 | CS(=O)(=O)N1C(=O)N(c2cccc(C(F)(F)F)c2)C2=C(C(=O)CCC2)C1c1ccc(C#N)cc1Cl (stereo not shown) [Example 67, 3-Chloro-4-(3-(methylsulfonyl)-2,5-dioxo-1-(3-(trifluoromethyl)phenyl)-1,2,3,4,5,6,7,8-octahydroquinazolin-4-yl)benzonitrile]
20 | > 9.00 | N#Cc1ccc(C2C3=C(CCCC3=O)N(c3cccc(C(F)(F)F)c3)C(=O)N2C(=O)NCCCO)cc1 (stereo not shown) [Example 39.6]
21 | 7.85 | N#Cc1ccc(C2C3=C(CCCC3=O)N(c3cccc(C(F)(F)F)c3)C(=O)N2CC(=O)NCCn2cccn2)cc1 (stereo not shown) [Example 36.32]

Row | pIC50 | Compound
22 | 7.45 | N#Cc1ccc(C2C3=C(CCCC3=O)N(c3cccc(C(F)(F)F)c3)C(=O)N2CC(=O)N2CC(=O)N3CCCCC3C2)cc1 (stereo not shown) [Example 36.73]
23 | 6.96 | N#Cc1ccc(C2NC(=O)N(c3cc(C(F)(F)F)ccn3)C3=C2C(=O)CCC3)cc1 (stereo not shown) [Example 13, 4-(2,5-Dioxo-1-(4-(trifluoromethyl)pyridin-2-yl)-1,2,3,4,5,6,7,8-octahydroquinazolin-4-yl)benzonitrile]
24 | 8.29 | CCS(=O)(=O)N1C(=O)N(c2cccc(C(F)(F)F)c2)C2=C(C(=O)CCC2)C1c1ccc(C#N)cc1 (stereo not shown) [Example 44.1]
25 | 7.67 | N#Cc1ccc(C2C3=C(CCCC3=O)N(c3cccc(C(F)(F)F)c3)C(=O)N2CC(=O)N2CCN(C3CC3)CC2)cc1 (stereo not shown) [Example 36.55]
26 | 8.85 | N#Cc1ccc(C2C3=C(CCCC3=O)N(c3cccc(C(F)(F)F)c3)C(=O)N2C(=O)NCC2(O)CC2)cc1 (stereo not shown) [Example 70.7]
27 | 7.86 | N#Cc1ccc(C2C3=C(CCCC3=O)N(c3cccc(C(F)(F)F)c3)C(=O)N2Cc2ccc(C(=O)O)o2)cc1 (stereo not shown) [Example 29, 5-((4-(4-Cyanophenyl)-2,5-dioxo-1-(3-(trifluoromethyl)phenyl)-1,2,5,6,7,8-hexahydroquinazolin-3(4H)-yl)methyl)furan-2-carboxylic acid]
28 | 7.97 | N#Cc1ccc(C2C3=C(CCCC3=O)N(c3cccc(C(F)(F)F)c3)C(=O)N2CC(=O)NC2CCOC2)cc1 (stereo not shown) [Example 36.9]
29 | 8.34 | N#Cc1ccc([C@@H]2C3=C(CCCC3=O)N(c3cccc(C(F)(F)F)c3)C(=O)N2CC(=O)O)cc1 [Example 32A, (R)-2-(4-(4-Cyanophenyl)-2,5-dioxo-1-(3-(trifluoromethyl)phenyl)-1,2,5,6,7,8-hexahydroquinazolin-3(4H)-yl)acetic acid]
30 | 8.47 | N#Cc1ccc(C2C3=C(CCCC3=O)N(c3cccc(C(F)(F)F)c3)C(=O)N2S(=O)(=O)CCCC(=O)O)cc1 (stereo not shown) [Example 45, 4-(4-(4-Cyanophenyl)-2,5-dioxo-1-(3-(trifluoromethyl)phenyl)-1,2,5,6,7,8-hexahydroquinazolin-3(4H)-ylsulfonyl)butanoic acid]
31 | 7.47 | COc1cc(C#N)ccc1C1NC(=O)N(c2cccc(C(F)(F)F)c2)C2=C1C(=O)CCC2 (stereo not shown) [Example 53, 4-(2,5-Dioxo-1-(3-(trifluoromethyl)phenyl)-1,2,3,4,5,6,7,8-octahydroquinazolin-4-yl)-3-methoxybenzonitrile]
32 | 7.87 | N#Cc1ccc(C2C3=C(CCCC3=O)N(c3cccc(C(F)(F)F)c3)C(=O)N2C(=O)N2CC(O)C2)cc1 (stereo not shown) [Example 39.4]
33 | > 9.00 | N#Cc1ccc(C2C3=C(CCCC3=O)N(c3cccc(C(F)(F)F)c3)C(=O)N2C(=O)NCC2CCC(=O)N2)cc1 (stereo not shown) [Example 39.17]
34 | 8.62 | CN(C(=O)CN1C(=O)N(c2cccc(C(F)(F)F)c2)C2=C(C(=O)CCC2)C1c1ccc(C#N)cc1)C1CC1 (stereo not shown) [Example 36.4]
35 | 8.18 | COCCN(C)C(=O)CN1C(=O)N(c2cccc(C(F)(F)F)c2)C2=C(C(=O)CCC2)C1c1ccc(C#N)cc1 (stereo not shown) [Example 36.12]
36 | 7.63 | N#Cc1ccc(C2NC(=O)N(c3cccc(C(F)F)c3)C3=C2C(=O)CCC3)cc1 (stereo not shown) [Example 17, 4-(1-(3-(Difluoromethyl)phenyl)-2,5-dioxo-1,2,3,4,5,6,7,8-octahydroquinazolin-4-yl)-benzonitrile]
37 | 7.86 | N#Cc1ccc(C2NC(=O)N(c3cc(F)cc(C(F)(F)F)c3)C3=C2C(=O)CCC3)cc1 (stereo not shown) [Example 52.2]
38 | 7.79 | Cc1nc2c(o1)CN(C(=O)CN1C(=O)N(c3cccc(C(F)(F)F)c3)C3=C(C(=O)CCC3)C1c1ccc(C#N)cc1)CC2 (stereo not shown) [Example 36.65]
39 | > 9.00 | C[S+]([O-])CCNC(=O)N1C(=O)N(c2cccc(C(F)(F)F)c2)C2=C(C(=O)CCC2)C1c1ccc(C#N)cc1 (stereo not shown) [Example 39.12]
40 | 6.96 | N#Cc1ccc(C2NC(=O)N(c3cccc(C(F)(F)F)c3)C3=C2C(=O)CC2(CCOCC2)C3)cc1 (stereo not shown) [Example 4, 4-(2′,5′-Dioxo-1′-(3-(trifluoromethyl)phenyl)-2,2′,3,3′,4′,5,5′,6,6′,8′-decahydro-1′H-spiro[pyran-4,7′-quinazoline]-4′-yl)benzonitrile]
41 | 7.94 | N#Cc1ccc(C2C3=C(CCCC3=O)N(c3cccc(C(F)(F)F)c3)C(=O)N2S(=O)(=O)c2ccccc2C#N)cc1 (stereo not shown) [Example 44.11]

Row | Compound | pIC50
42 | CS(=O)(=O)c1cc(C#N)ccc1[C@@H]1C2=C(CCCC2=O)N(c2cccc(C(F)(F)F)c2)C(=O)N1C(=O)NC1CC1 [Example 75.2] | > 9.00
43 | CS(=O)(=O)c1cc(C#N)ccc1[C@@H]1C2=C(CCCC2=O)N(c2cccc(C(F)(F)F)c2)C(=O)N1C(=O)NC1COC1 [Example 75.5] | > 9.00
